Assay results taken from the NIST ThermoML archive (doi:10.1021/je8008864).
Numbers after ± are expanded uncertainties.

Assay: mn = molality of the nth substance listed, in mol/kg
Settings: 101 kPa, Liquid; for viscosity: Rotational; for mass density: Vibrating tube method

CNCCC=C1c2ccccc2CCc2ccccc21.Cl + O
Settings | mass density [kg/m3] | viscosity [mPa·s]
293.15 K, m1 = 0.0075 | 998.486 ± 0.11 | 1.035 ± 0.006
293.15 K, m1 = 0.01 | 998.545 ± 0.11 | 1.035 ± 0.006
293.15 K, m1 = 0.0125 | 998.599 ± 0.11 | 1.036 ± 0.006
293.15 K, m1 = 0.0152 | 998.645 ± 0.11 | 1.036 ± 0.006
293.15 K, m1 = 0.0175 | 998.668 ± 0.1 | 1.037 ± 0.006
293.15 K, m1 = 0.02 | 998.705 ± 0.1 | 1.037 ± 0.006
293.15 K, m1 = 0.025 | 998.721 ± 0.1 | 1.038 ± 0.006
298.15 K, m1 = 0.0076 | 997.322 ± 0.12 | 0.9368 ± 0.006
298.15 K, m1 = 0.01 | 997.382 ± 0.11 | 0.937 ± 0.006
298.15 K, m1 = 0.0125 | 997.428 ± 0.11 | 0.9374 ± 0.006
298.15 K, m1 = 0.0152 | 997.469 ± 0.11 | 0.9376 ± 0.006
298.15 K, m1 = 0.0175 | 997.499 ± 0.11 | 0.9379 ± 0.006
298.15 K, m1 = 0.02 | 997.521 ± 0.1 | 0.9382 ± 0.006
298.15 K, m1 = 0.025 | 997.545 ± 0.11 | 0.9388 ± 0.006
303.15 K, m1 = 0.0076 | 995.904 ± 0.12 | 0.8338 ± 0.006
303.15 K, m1 = 0.01 | 995.959 ± 0.11 | 0.8339 ± 0.006
303.15 K, m1 = 0.0125 | 996.001 ± 0.11 | 0.8342 ± 0.006
303.15 K, m1 = 0.0152 | 996.045 ± 0.11 | 0.8345 ± 0.006
303.15 K, m1 = 0.0175 | 996.065 ± 0.1 | 0.8348 ± 0.006
303.15 K, m1 = 0.02 | 996.085 ± 0.1 | 0.8349 ± 0.006
303.15 K, m1 = 0.025 | 996.105 ± 0.1 | 0.8356 ± 0.006
308.15 K, m1 = 0.0076 | 994.285 ± 0.11 | 0.7279 ± 0.006
308.15 K, m1 = 0.01 | 994.335 ± 0.11 | 0.7281 ± 0.006
308.15 K, m1 = 0.0125 | 994.379 ± 0.11 | 0.7283 ± 0.006
308.15 K, m1 = 0.0152 | 994.409 ± 0.11 | 0.7285 ± 0.006
308.15 K, m1 = 0.0175 | 994.435 ± 0.11 | 0.7286 ± 0.006
308.15 K, m1 = 0.02 | 994.455 ± 0.1 | 0.7289 ± 0.006
308.15 K, m1 = 0.025 | 994.465 ± 0.1 | 0.7293 ± 0.006
310.15 K, m1 = 0.0076 | 993.565 ± 0.11 | 0.6925 ± 0.006
310.15 K, m1 = 0.01 | 993.621 ± 0.11 | 0.6928 ± 0.006
310.15 K, m1 = 0.0125 | 993.659 ± 0.11 | 0.6929 ± 0.006
310.15 K, m1 = 0.0152 | 993.689 ± 0.11 | 0.6931 ± 0.006
310.15 K, m1 = 0.0175 | 993.712 ± 0.11 | 0.6932 ± 0.006
310.15 K, m1 = 0.02 | 993.73 ± 0.1 | 0.6935 ± 0.006
310.15 K, m1 = 0.025 | 993.741 ± 0.1 | 0.6938 ± 0.006
313.15 K, m1 = 0.0076 | 992.443 ± 0.11 | 0.6556 ± 0.006
313.15 K, m1 = 0.01 | 992.499 ± 0.11 | 0.6557 ± 0.006
313.15 K, m1 = 0.0125 | 992.539 ± 0.11 | 0.6558 ± 0.006
313.15 K, m1 = 0.0152 | 992.571 ± 0.11 | 0.656 ± 0.006
313.15 K, m1 = 0.0175 | 992.592 ± 0.11 | 0.6562 ± 0.006
313.15 K, m1 = 0.02 | 992.601 ± 0.11 | 0.6564 ± 0.006
313.15 K, m1 = 0.025 | 992.609 ± 0.11 | 0.6568 ± 0.006

CC(CN(C)C)CN1c2ccccc2CCc2ccccc21.O=C(O)/C=C\C(=O)O (stereo not drawn) [trimipramine maleate] + O
Settings | mass density [kg/m3] | viscosity [mPa·s]
293.15 K, m1 = 0.0075 | 998.499 ± 0.11 | 1.035 ± 0.006
293.15 K, m1 = 0.01 | 998.566 ± 0.11 | 1.035 ± 0.006
293.15 K, m1 = 0.0125 | 998.625 ± 0.11 | 1.036 ± 0.006
293.15 K, m1 = 0.0152 | 998.675 ± 0.11 | 1.036 ± 0.006
293.15 K, m1 = 0.0175 | 998.715 ± 0.11 | 1.037 ± 0.006
293.15 K, m1 = 0.02 | 998.745 ± 0.1 | 1.038 ± 0.006
293.15 K, m1 = 0.025 | 998.799 ± 0.1 | 1.04 ± 0.006
298.15 K, m1 = 0.0076 | 997.329 ± 0.12 | 0.937 ± 0.006
298.15 K, m1 = 0.01 | 997.396 ± 0.11 | 0.9373 ± 0.006
298.15 K, m1 = 0.0125 | 997.455 ± 0.11 | 0.9376 ± 0.006
298.15 K, m1 = 0.0152 | 997.499 ± 0.11 | 0.9379 ± 0.006
298.15 K, m1 = 0.0175 | 997.535 ± 0.11 | 0.9382 ± 0.006
298.15 K, m1 = 0.02 | 997.569 ± 0.11 | 0.9385 ± 0.006
298.15 K, m1 = 0.025 | 997.601 ± 0.1 | 0.9393 ± 0.006
303.15 K, m1 = 0.0076 | 995.919 ± 0.12 | 0.8339 ± 0.006
303.15 K, m1 = 0.01 | 995.981 ± 0.11 | 0.8342 ± 0.006
303.15 K, m1 = 0.0125 | 996.031 ± 0.11 | 0.8345 ± 0.006
303.15 K, m1 = 0.0152 | 996.081 ± 0.11 | 0.8348 ± 0.006
303.15 K, m1 = 0.0175 | 996.105 ± 0.11 | 0.835 ± 0.006
303.15 K, m1 = 0.02 | 996.141 ± 0.11 | 0.8354 ± 0.006
303.15 K, m1 = 0.025 | 996.175 ± 0.1 | 0.8361 ± 0.006
308.15 K, m1 = 0.0076 | 994.296 ± 0.11 | 0.7339 ± 0.006
308.15 K, m1 = 0.01 | 994.355 ± 0.11 | 0.7341 ± 0.006
308.15 K, m1 = 0.0125 | 994.401 ± 0.11 | 0.7343 ± 0.006
308.15 K, m1 = 0.0152 | 994.455 ± 0.11 | 0.7346 ± 0.006
308.15 K, m1 = 0.0175 | 994.475 ± 0.11 | 0.7348 ± 0.006
308.15 K, m1 = 0.02 | 994.515 ± 0.11 | 0.7351 ± 0.006
308.15 K, m1 = 0.025 | 994.535 ± 0.1 | 0.7355 ± 0.006
310.15 K, m1 = 0.0076 | 993.58 ± 0.11 | 0.6928 ± 0.006
310.15 K, m1 = 0.01 | 993.638 ± 0.11 | 0.693 ± 0.006
310.15 K, m1 = 0.0125 | 993.681 ± 0.11 | 0.6932 ± 0.006
310.15 K, m1 = 0.0152 | 993.721 ± 0.11 | 0.6934 ± 0.006
310.15 K, m1 = 0.0175 | 993.749 ± 0.11 | 0.6937 ± 0.006
310.15 K, m1 = 0.02 | 993.769 ± 0.11 | 0.6939 ± 0.006
310.15 K, m1 = 0.025 | 993.799 ± 0.1 | 0.6943 ± 0.006
313.15 K, m1 = 0.0076 | 992.458 ± 0.11 | 0.6561 ± 0.006
313.15 K, m1 = 0.01 | 992.506 ± 0.11 | 0.6564 ± 0.006
313.15 K, m1 = 0.0125 | 992.551 ± 0.11 | 0.6566 ± 0.006
313.15 K, m1 = 0.0152 | 992.589 ± 0.11 | 0.6568 ± 0.006
313.15 K, m1 = 0.0175 | 992.609 ± 0.11 | 0.6571 ± 0.006
313.15 K, m1 = 0.02 | 992.615 ± 0.11 | 0.6573 ± 0.006
313.15 K, m1 = 0.025 | 992.635 ± 0.11 | 0.6579 ± 0.006
